Results taken from PMC6740193 (ACS Omega, 2019).

Target: T1, 1-deoxy-D-xylulose-5-phosphate reductoisomerase (DXR) (Escherichia coli, UniProt P45568)
T1 sequence (P45568 1-398): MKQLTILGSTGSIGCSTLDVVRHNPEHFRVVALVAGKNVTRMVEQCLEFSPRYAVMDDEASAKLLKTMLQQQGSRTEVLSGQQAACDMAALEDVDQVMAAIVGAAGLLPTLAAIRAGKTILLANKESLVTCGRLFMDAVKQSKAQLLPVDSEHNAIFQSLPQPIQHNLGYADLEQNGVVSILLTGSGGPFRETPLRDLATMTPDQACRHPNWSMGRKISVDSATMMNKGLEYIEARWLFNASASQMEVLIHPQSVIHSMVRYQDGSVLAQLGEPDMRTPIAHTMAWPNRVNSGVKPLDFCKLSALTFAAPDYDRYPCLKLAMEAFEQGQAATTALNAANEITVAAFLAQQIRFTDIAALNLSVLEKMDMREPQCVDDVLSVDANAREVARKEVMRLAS
Assay: recombinant enzyme assay, NADPH consumption at […] nm
Type: biochemical

Question: Which IC50 does the source give for `O=P(O)(O)CCCB(O)O` [compound 4, 3-Borono Propyl Phosphonic Acid] here?
Answer: The IC50 was 128 ± 3 µM.
